Assays:
[1] = Inhibition of CutC in Escherichia coli MS 200-1 assessed as reduction in TMA formation incubated for 3.5 hrs under anaerobic condition in presence of d9-choline by LC-MS-MS analysis
[2] = biological target: T1, Choline trimethylamine-lyase (Desulfovibrio alaskensis, UniProt Q30W70); experiment: Inhibition of Desulfovibrio desulfuricans (strain G20) CutC assessed as reduction in TMA by spectrophotometry
T1 sequence (Q30W70 whole entry): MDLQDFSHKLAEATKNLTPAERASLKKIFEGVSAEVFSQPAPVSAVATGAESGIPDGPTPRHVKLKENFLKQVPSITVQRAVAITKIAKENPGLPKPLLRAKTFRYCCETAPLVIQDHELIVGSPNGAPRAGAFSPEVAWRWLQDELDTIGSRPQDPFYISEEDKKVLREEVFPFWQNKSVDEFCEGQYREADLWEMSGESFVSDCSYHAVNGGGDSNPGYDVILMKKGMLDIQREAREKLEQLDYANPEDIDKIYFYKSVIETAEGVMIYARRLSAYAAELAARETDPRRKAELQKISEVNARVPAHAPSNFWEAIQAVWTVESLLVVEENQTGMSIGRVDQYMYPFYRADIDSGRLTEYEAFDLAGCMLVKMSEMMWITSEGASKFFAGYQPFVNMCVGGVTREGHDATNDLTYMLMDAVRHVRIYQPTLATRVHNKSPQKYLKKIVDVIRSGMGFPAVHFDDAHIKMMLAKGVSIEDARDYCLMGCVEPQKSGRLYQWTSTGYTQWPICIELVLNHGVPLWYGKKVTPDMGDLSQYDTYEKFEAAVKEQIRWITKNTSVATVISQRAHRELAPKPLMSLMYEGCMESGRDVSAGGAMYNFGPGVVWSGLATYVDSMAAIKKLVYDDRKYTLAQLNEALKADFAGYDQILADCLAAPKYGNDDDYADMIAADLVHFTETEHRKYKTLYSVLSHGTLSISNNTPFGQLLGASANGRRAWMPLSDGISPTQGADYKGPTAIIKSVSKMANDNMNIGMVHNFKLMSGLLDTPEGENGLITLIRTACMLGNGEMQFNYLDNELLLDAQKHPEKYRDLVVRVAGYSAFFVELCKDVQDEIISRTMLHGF

[3] = Inhibition of Escherichia coli MS 69-1 CutC assessed as TMA formation by LC-MS/MS
[4] = Inhibition of Proteus mirabilis CutC assessed as TMA formation by LC-MS/MS
[5] = Inhibition of Klebsiella sp. MS 92-3 CutC assessed as TMA formation by LC-MS/MS; parameters: species or system Klebsiella pneumoniae
[6] = Inhibition of Clostridium sporogenes CutC assessed as TMA formation by LC-MS/MS
[7] = Inhibition of TMA formation in human fecal suspension by LC-MS/MS; type: functional, tissue-based, Feces

Structure (SMILES)	IC50 [1]	other results
[2H]C1(O)C=CCN(C)C1 (stereo not drawn)	30 µM	
OC1C=CCN(Cc2ccccc2)C1 (stereo not drawn)	370 µM	
CN1CCCC(O)CC1 (stereo not drawn)	760 µM	
OC1C=CCOC1 (stereo not drawn)	80 µM	
OC1C=CCCC1 (stereo not drawn)	260 µM	
CN1CC=CC(O)C1 (stereo not drawn)	10 µM	
CN1CCCC(=O)C1	27000 µM	IC50 [2]: > 10000 µM
CN1CC=C[C@H](O)C1	9.8 µM	IC50 [3]: 22 µM; IC50 [4]: 92 µM; IC50 [5]: 4 µM; IC50 [6]: 12 µM; IC50 [7]: 60 µM
OC1C=CCN(C2CCC2)C1 (stereo not drawn)	190 µM	IC50 [2]: 200 µM
CC1=CC(O)CN(C)C1 (stereo not drawn)	920 µM	
C[N+]1(C)CC=CC(O)C1 (stereo not drawn)	7.6 µM	
C[N+](C)(C)CC=O [BETAINE ALDEHYDE]		IC50 [3]: 465 µM; IC50 [4]: 2490 µM; IC50 [5]: 212 µM; IC50 [6]: 1000 µM; IC50 [7]: 1270 µM
CN1CC=C[C@@H](O)C1	31 µM	
CN1CCC(O)C1 (stereo not drawn)	6300 µM	
CC(=O)OC1C=CCN(C)C1 (stereo not drawn)	1800 µM	
CCCN1CC=CC(O)C1 (stereo not drawn)	200 µM	
CN1CCC(O)CC1	1600 µM	

From ChEMBL document CHEMBL4725445, “Discovery of a Cyclic Choline Analog That Inhibits Anaerobic Choline Metabolism by Human Gut Bacteria” (ACS Med Chem Lett, 2020)
